Assay results published in patent US20230172825A1, “COMPOSITION FOR IMPROVING SKIN COMPRISING AMINO ACID COMPLEX AS ACTIVE INGREDIENT” (NATURE IN LAB. INC., priority 2021, published 2023).

Columns and labels:
Format in all cases: cell-based, human
[1] = test system: MMP-1; assay: Inhibition of MMP-1 gene expression in UVA-damaged cells (real-time PCR); conditions: UVA-irradiated CCD-1064Sk, 24 hours, concentration 1 µg/mℓ; UVA alone 100.0, control group 50.5
Experimental: Human dermal fibroblasts (CCD-1064Sk, ATCC® CRL-2076™) were inoculated into a 60-mm dish using IMDM (Welgene, Korea) and cultured for 24 hours, followed by UVA irradiation. Afterwards, the medium was replaced with fresh serum-free IMDM, and samples were each treated at different concentrations and cultured for 24 hours at 37° C. in a 5 % CO2 incubator. After removal of the medium, the cells were collected by using QIAzol™ Lysis Reagent (Qiagen), and RNA thereof was isolated according to the protocol of the manufacturer. After quantifying the isolated RNA, cDNA was synthesized with 1 µg of RNA, followed by Real-time PCR (Applied Biosystems, 7500 FAST Real-Time PCR System).

[2] = test system: collagen type III; assay: Gene expression of collagen type III (real-time PCR); conditions: CCD-1064Sk, 24 hours, concentration 100 µg/mℓ; control group 100.0
Experimental: Human dermal fibroblasts (CCD-1064Sk, ATCC® CRL-2076™) were inoculated into a 60 mm dish using IMDM (Welgene, Korea), cultured for 24 hours, and then replaced with fresh serum-free IMDM. […] After removal of the medium, the cells were collected by using QIAzol™ Lysis Reagent (Qiagen), and RNA thereof was isolated according to the protocol of the manufacturer. After quantifying the isolated RNA, cDNA was synthesized with 1 µg of RNA, followed by Real-time PCR (Applied Biosystems, 7500 FAST Real-Time PCR System).

[3] = test system: collagen type I; assay: Gene expression of collagen type I (real-time PCR); conditions: CCD-1064Sk, 24 hours, concentration 100 µg/mℓ; control group 100.0
Experimental: After removal of the medium, the cells were collected by using QIAzol™ Lysis Reagent (Qiagen), and RNA thereof was isolated according to the protocol of the manufacturer. After quantifying the isolated RNA, cDNA was synthesized with 1 µg of RNA, followed by Real-time PCR (Applied Biosystems, 7500 FAST Real-Time PCR System).

Row | SMILES | Mean (gene expression of MMP-1) [1] | Mean (gene expression of collagen type III) [2] | Mean (gene expression of collagen type I) [3]
1 | O=C(O[C@@H]1Cc2c(O)cc(O)cc2O[C@@H]1c1cc(O)c(O)c(O)c1)c1cc(O)c(O)c(O)c1 [EGCG] | 56.7 |  | 
2 | O=C1O[C@H]([C@@H](O)CO)C(O)=C1O [Vitamin C, vitamin C] |  | 135.6 | 134.2
